Test system: human FXN
Assay: EC50 assay: FXN mRNA expression by qRT-PCR in GM15850 cells after 48 hrs compound treatment
Type: cell-based
Settings: Homo sapiens, 48 hrs incubation, hFXN expression normalized to hGAPDH (qRT-PCR), read-out: EC50 WT (nM, 48 hr)
Method: Cell culture: Cells were cultured in RPMI1640 medium+15% FBS. Cells were maintained at a density between 2e5/mL and 1e6/mL. Cells were centrifuged, resuspended in fresh medium, counted and plated at 150,000 cells per well in 100 uL in a non-coated, flat bottom tissue culture plate.
Compound treatment: 10 mM stock solution of FA GeneTAC was diluted 1:10 in DMSO followed by a 1:100 dilution in growth medium. Working solution was then further diluted to 10× desired final concentration of 150 nM. Compound was then diluted at a 1:3 ratio into growth medium containing 0.01% DMSO. 5-point, 3-fold dose response curve was generated. 11 μL of 1OX compound was added to wells containing 100 μL cell suspension of GM15850. 11 μL growth medium containing 0.01% DMSO was added to all wells not treated with FA GeneTAC. Cells were allowed to incubate for 48 hrs prior to cell lysis using guanidine isothiocyanate solution.
RNA isolation: Total RNA was isolated and purified in 384-well column filter plates using chaotropic salt.
qRT-PCR: qRT-PCR reactions were assembled using AgPath-ID reagents (Thermo Fisher) using 6 uL mastermix and 4 μL RNA. qRT-PCR TaqMan primer probe sets against human FXN (Assay ID Hs01075496_m1) and human GAPDH (Assay ID Hs00266705_g1) were used to measure the intended targets. qRT-PCR was run on the ThermoFisher QuantStudio 6 PRO instrument using the manufacturer's recommended cycling conditions.
Data analysis: qPCR data was analyzed using Thermo Fisher Design and Analysis software. Data was exported to Excel and hFXN expression was normalized to hGAPDH expression
A<100 nM; B is 100 nM to 500 nM; C>500 nM.

SMILES | EC50 [nM]
Cc1sc2c(c1C)C(c1ccc(Cl)cc1)=N[C@@H](CC(=O)Nc1ccc(N3CCN(CCOCCOCCOCCOCCOCCOCCOCCNC(=O)CCNC(=O)c4nc(NC(=O)CCNC(=O)c5cc(NC(=O)c6nc(NC(=O)CCNC(=O)c7cc(NC(=O)c8nccn8C)cn7C)cn6C)cn5C)cn4C)CC3)cc1)c1nnc(C)n1-2 [Compound 2] | < 100
Cc1sc2c(c1C)C(c1ccc(Cl)cc1)=N[C@@H](CC(=O)Nc1ccc(N3CCN(CCOCCOCCOCCOCCOCCOCCNC(=O)CCNC(=O)c4nc(NC(=O)CCNC(=O)c5cc(NC(=O)c6nc(NC(=O)CCNC(=O)c7cc(NC(=O)c8nccn8C)cn7C)cn6C)cn5C)cn4C)CC3)cc1)c1nnc(C)n1-2 [Compound 3] | < 100
Cc1sc2c(c1C)C(c1ccc(Cl)cc1)=N[C@@H](CC(=O)Nc1ccc(N3CCN(CCOCCOCCOCCOCCOCCNC(=O)CCNC(=O)c4nc(NC(=O)CCNC(=O)c5cc(NC(=O)c6nc(NC(=O)CCNC(=O)c7cc(NC(=O)c8nccn8C)cn7C)cn6C)cn5C)cn4C)CC3)cc1)c1nnc(C)n1-2 [Compound 4] | < 100
Cc1sc2c(c1C)C(c1ccc(Cl)cc1)=N[C@@H](CC(=O)Nc1ccc(N3CCN(CC4CCN(CCOCCOCCOCCOCCOCCNC(=O)CCNC(=O)c5nc(NC(=O)CCNC(=O)c6cc(NC(=O)c7nc(NC(=O)CCNC(=O)c8cc(NC(=O)c9nccn9C)cn8C)cn7C)cn6C)cn5C)CC4)CC3)cc1)c1nnc(C)n1-2 [Compound 5] | 100 to 500
Cc1sc2c(c1C)C(c1ccc(Cl)cc1)=N[C@@H](CC(=O)Nc1ccc(N3CCN(CC4CCN(CCOCCOCCOCCOCCNC(=O)CCNC(=O)c5nc(NC(=O)CCNC(=O)c6cc(NC(=O)c7nc(NC(=O)CCNC(=O)c8cc(NC(=O)c9nccn9C)cn8C)cn7C)cn6C)cn5C)CC4)CC3)cc1)c1nnc(C)n1-2 [Compound 6] | 100 to 500
Cc1sc2c(c1C)C(c1ccc(Cl)cc1)=N[C@@H](CC(=O)Nc1ccc(N3CCN(CC4CCN(CCOCCOCCOCCNC(=O)CCNC(=O)c5nc(NC(=O)CCNC(=O)c6cc(NC(=O)c7nc(NC(=O)CCNC(=O)c8cc(NC(=O)c9nccn9C)cn8C)cn7C)cn6C)cn5C)CC4)CC3)cc1)c1nnc(C)n1-2 [Compound 7] | 100 to 500
Cc1sc2c(c1C)C(c1ccc(Cl)cc1)=N[C@@H](CC(=O)Nc1ccc(N3CCC(N4CCN(CCOCCOCCOCCOCCOCCOCCNC(=O)CCNC(=O)c5nc(NC(=O)CCNC(=O)c6cc(NC(=O)c7nc(NC(=O)CCNC(=O)c8cc(NC(=O)c9nccn9C)cn8C)cn7C)cn6C)cn5C)CC4)CC3)cc1)c1nnc(C)n1-2 [Compound 8] | < 100
Cc1sc2c(c1C)C(c1ccc(Cl)cc1)=N[C@@H](CC(=O)Nc1ccc(N3CCC(N4CCN(CCOCCOCCOCCOCCOCCNC(=O)CCNC(=O)c5nc(NC(=O)CCNC(=O)c6cc(NC(=O)c7nc(NC(=O)CCNC(=O)c8cc(NC(=O)c9nccn9C)cn8C)cn7C)cn6C)cn5C)CC4)CC3)cc1)c1nnc(C)n1-2 [Compound 9] | < 100
Cc1sc2c(c1C)C(c1ccc(Cl)cc1)=N[C@@H](CC(=O)Nc1ccc(N3CCC(N4CCN(CCOCCOCCOCCOCCNC(=O)CCNC(=O)c5nc(NC(=O)CCNC(=O)c6cc(NC(=O)c7nc(NC(=O)CCNC(=O)c8cc(NC(=O)c9nccn9C)cn8C)cn7C)cn6C)cn5C)CC4)CC3)cc1)c1nnc(C)n1-2 [Compound 10] | < 100
Cc1sc2c(c1C)C(c1ccc(Cl)cc1)=N[C@@H](CC(=O)Nc1ccc(C#CC3CCN(CCOCCOCCOCCOCCOCCOCCNC(=O)CCNC(=O)c4nc(NC(=O)CCNC(=O)c5cc(NC(=O)c6nc(NC(=O)CCNC(=O)c7cc(NC(=O)c8nccn8C)cn7C)cn6C)cn5C)cn4C)CC3)cc1)c1nnc(C)n1-2 [Compound 11] | < 100
Cc1sc2c(c1C)C(c1ccc(Cl)cc1)=N[C@@H](CC(=O)Nc1ccc(C#CC3CCN(CCOCCOCCOCCOCCOCCNC(=O)CCNC(=O)c4nc(NC(=O)CCNC(=O)c5cc(NC(=O)c6nc(NC(=O)CCNC(=O)c7cc(NC(=O)c8nccn8C)cn7C)cn6C)cn5C)cn4C)CC3)cc1)c1nnc(C)n1-2 [Compound 12] | < 100
